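Assay format: 96-well plates, 48-hour exposure. Here, GI50 denotes the concentration required for 50% inhibition of growth. The concentration for full growth arrest is given as TGI.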
Columns and labels:
Assay in all cases: inhibition of tumour cell growth, NCI panel, 48 h
[1] = tested on: HS 578T breast
[2] = tested on: CAKI-1 renal
[3] = tested on: A498 renal
[4] = tested on: OVCAR-5 ovarian
[5] = tested on: HCT-116 colon
[6] = tested on: K-562 leukemia
[7] = tested on: OVCAR-3 ovarian
[8] = tested on: HCT-15 colon
[9] = tested on: SF-539 CNS
[10] = tested on: UO-31 renal
[11] = tested on: BT-549 breast
[12] = tested on: SN12C renal
[13] = tested on: SK-MEL-5 melanoma
[14] = tested on: SW-620 colon
[15] = tested on: NCI/ADR-RES ovarian
[16] = tested on: UACC-62 melanoma
[17] = tested on: PC-3 prostate
[18] = tested on: UACC-257 melanoma
[19] = tested on: HT29 colon
[20] = tested on: ACHN renal
[21] = tested on: MDA-MB-435
[22] = tested on: HOP-62 NSCLC
[23] = tested on: OVCAR-8 ovarian
[24] = tested on: HCC-2998 colon
[25] = tested on: SK-OV-3 ovarian
[26] = tested on: LOX IMVI melanoma
[27] = tested on: RXF 393 renal
[28] = tested on: SNB-19 CNS
[29] = tested on: IGROV1 ovarian
[30] = tested on: NCI-H460 lung
[31] = tested on: SK-MEL-2 melanoma
[32] = tested on: COLO 205 colon
[33] = tested on: HOP-92 NSCLC
[34] = tested on: 786-0 renal
[35] = tested on: SF-268 CNS
[36] = tested on: DU-145 prostate
[37] = tested on: TK-10 renal
[38] = tested on: SK-MEL-28 melanoma
[39] = tested on: NCI-H226 lung
[40] = tested on: A549 NSCLC
[41] = tested on: M14 melanoma
[42] = tested on: RPMI-8226 leukemia
[43] = tested on: EKVX NSCLC
[44] = tested on: T-47D breast
[45] = tested on: NCI-H522 lung
[46] = tested on: MOLT-4 leukemia
[47] = tested on: MDA-MB-468 breast
[48] = tested on: U251 CNS
[49] = tested on: CCRF-CEM leukemia
[50] = tested on: MCF7 breast
[51] = tested on: SF-295 CNS
[52] = tested on: MALME-3M melanoma
[53] = tested on: NCI-H23 lung
[54] = tested on: MDA-MB-231 breast
[55] = tested on: KM12 colon
[56] = tested on: OVCAR-4 ovarian

Compound `Cn1cc(-c2cc3nc(-c4cn(C)c5ncccc45)cc(N)n3n2)c2cc(Cl)ccc21` has a GI50 [1] of 2100 nM, a TGI [1] of 5250 nM and a GI50 [2] of 1850 nM. It also gave a TGI [2] of 4380 nM, a GI50 [3] of 1900 nM and a TGI [3] of 5370 nM. The GI50 [4] was 1850 nM, the TGI [4] was 4480 nM and the GI50 [5] was 1620 nM. The TGI [5] was 2980 nM, the GI50 [6] was 1750 nM and the TGI [6] was 4410 nM. For the same compound, the GI50 [7] was 1910 nM, the TGI [7] was 3590 nM and the GI50 [8] was 1890 nM. It also gave a TGI [8] of 4360 nM, a GI50 [9] of 1730 nM and a TGI [9] of 3150 nM. The GI50 [10] was 1620 nM, the TGI [10] was 3310 nM and the GI50 [11] was 1590 nM. For the same compound, the TGI [11] was 3090 nM, the GI50 [12] was 1630 nM and the TGI [12] was 3090 nM. The GI50 [13] was 1590 nM, the TGI [13] was 2960 nM and the GI50 [14] was 1800 nM. It also gave a TGI [14] of 3530 nM, a GI50 [15] of 2250 nM and a TGI [15] of 5300 nM. For the same compound, the GI50 [16] was 1600 nM, the TGI [16] was 3040 nM and the GI50 [17] was 2210 nM. For the same compound, the TGI [17] was 7600 nM, the GI50 [18] was 1720 nM and the TGI [18] was 3340 nM. It also gave a GI50 [19] of 1980 nM, a TGI [19] of 4100 nM and a GI50 [20] of 1860 nM. It also gave a TGI [20] of 3530 nM, a GI50 [21] of 1710 nM and a TGI [21] of 3290 nM. The GI50 [22] was 1960 nM, the TGI [22] was 4210 nM and the GI50 [23] was 2130 nM. It also gave a TGI [23] of 4820 nM, a GI50 [24] of 1710 nM and a TGI [24] of 3120 nM. It also gave a GI50 [25] of 2020 nM, a TGI [25] of 4080 nM and a GI50 [26] of 1770 nM. The TGI [26] was 3160 nM, the GI50 [27] was 1530 nM and the TGI [27] was 2970 nM. The GI50 [28] was 3230 nM, the TGI [28] was 9760 nM and the GI50 [29] was 1870 nM. For the same compound, the TGI [29] was 3490 nM, the GI50 [30] was 1880 nM and the TGI [30] was 3670 nM. It also gave a GI50 [31] of 1910 nM, a TGI [31] of 3690 nM and a GI50 [32] of 1770 nM. The TGI [32] was 3240 nM, the GI50 [33] was 2160 nM and the TGI [33] was 4140 nM. It also gave a GI50 [34] of 1650 nM, a TGI [34] of 3030 nM and a GI50 [35] of 2130 nM. The TGI [35] was 4830 nM, the GI50 [36] was 2540 nM and the TGI [36] was 7060 nM. For the same compound, the GI50 [37] was 1910 nM, the TGI [37] was 6910 nM and the GI50 [38] was 1650 nM. The TGI [38] was 3040 nM, the GI50 [39] was 2020 nM and the TGI [39] was 4640 nM. The GI50 [40] was 2870 nM, the TGI [40] was 12000 nM and the GI50 [41] was 1670 nM. For the same compound, the TGI [41] was 3140 nM, the GI50 [42] was 2400 nM and the TGI [42] was 6400 nM. The GI50 [43] was 1680 nM, the TGI [43] was 3510 nM and the GI50 [44] was 1800 nM. For the same compound, the TGI [44] was 4040 nM, the GI50 [45] was 1770 nM and the TGI [45] was 3330 nM. It also gave a GI50 [46] of 2020 nM, a TGI [46] of 5110 nM and a GI50 [47] of 1500 nM. The TGI [47] was 2860 nM, the GI50 [48] was 2180 nM and the TGI [48] was 5030 nM. The GI50 [49] was 2580 nM, the TGI [49] was > 100000 nM and the GI50 [50] was 1830 nM. It also gave a TGI [50] of 4310 nM, a GI50 [51] of 1770 nM and a TGI [51] of 3410 nM. It also gave a GI50 [52] of 1710 nM, a TGI [52] of 3150 nM and a GI50 [53] of 2320 nM. For the same compound, the TGI [53] was 6470 nM, the GI50 [54] was 1760 nM and the TGI [54] was 3230 nM. It also gave a GI50 [55] of 2140 nM, a TGI [55] of 4760 nM and a GI50 [56] of 2030 nM. The TGI [56] was 4740 nM.
